Results reported in patent publication US20240279207A1, “SUBSTITUTED ACYL SULFONAMIDES FOR TREATING CANCER” (The Broad Institute, Inc., priority 2020, published 2024).

Assays:
[1] = target: T1, Recombinant human His-tagged Kat6a protein (amino acids 194-810) (Homo sapiens, UniProt Q92794); experiment: Kat6a activity assay (TR-FRET, acetylation of Histone-H4-derived peptide); format: biochemical; conditions: 60 mins at 22° C., 220 nM H4 peptide, 600 nM Acetyl Coenzyme A, read-out: KAT6A - DPF/HAT domain IC50 [mol/l] (arithmetic mean)
T1 construct: Kat6a protein (amino acids 194-810); His

[2] = tested on: ESR1 transcription in MVLN cells; experiment: MVLN reporter assay: repression of ESR1 transcription (luciferase signal); format: cell-based; conditions: Homo sapiens, MVLN, 24 h, luciferase signal after 24 h, read-out: MVLN reporter assay, IC50 [M] (arithmetic mean)
How it was run: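 MVLN cells, expressing ER and stably carrying a vitellogenin A2 ERE-luciferase reporter, treated with compound in duplicate; luciferase read after 24 h with Steadylite plus. Cell density checked in parallel by Alamar Blue fluorescence (530/590 nm, 2 h) before the luciferase read.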

T1 sequence (Q92794 194-810): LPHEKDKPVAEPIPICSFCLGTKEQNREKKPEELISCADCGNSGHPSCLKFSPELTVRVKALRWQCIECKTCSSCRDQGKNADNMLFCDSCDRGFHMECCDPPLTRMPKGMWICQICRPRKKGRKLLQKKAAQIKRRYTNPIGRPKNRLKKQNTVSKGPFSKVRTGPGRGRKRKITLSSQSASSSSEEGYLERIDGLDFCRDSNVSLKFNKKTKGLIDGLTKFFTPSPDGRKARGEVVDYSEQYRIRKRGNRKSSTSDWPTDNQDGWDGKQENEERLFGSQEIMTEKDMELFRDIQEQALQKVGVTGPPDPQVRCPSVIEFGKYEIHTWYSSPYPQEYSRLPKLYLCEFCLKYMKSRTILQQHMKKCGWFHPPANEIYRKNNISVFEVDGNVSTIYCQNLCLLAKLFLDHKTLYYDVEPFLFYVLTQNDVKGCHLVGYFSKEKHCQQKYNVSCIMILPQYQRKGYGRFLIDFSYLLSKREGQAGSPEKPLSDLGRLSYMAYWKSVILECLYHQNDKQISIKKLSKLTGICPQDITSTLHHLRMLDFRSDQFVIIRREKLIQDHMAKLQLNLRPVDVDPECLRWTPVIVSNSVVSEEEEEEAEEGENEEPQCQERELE

Row | SMILES | IC50 [1] [nM] | IC50 [2] [M]
1 | CCn1nc(S(=O)(=O)NC(=O)c2cc3c(F)cc(N4CCC4)cc3o2)c2cccnc21 [Example 143, 6-(Azetidin-1-yl)-N-(1-ethyl-1H-pyrazolo[3,4-b]pyridine-3-sulfonyl)-4-fluoro-1-benzofuran-2-carboxamide] | 226 | 4.61e-06
2 | CCOc1ccccc1S(=O)(=O)NC(=O)c1cc2ccc(N3CC4(CCC4)C3)cc2o1 [Example 123, 6-(2-Azaspiro[3.3]heptan-2-yl)-N-(2-ethoxybenzene-1-sulfonyl)-1-benzofuran-2-carboxamide] | > 20000 | > 2e-05
3 | Cc1cccc(OC(C)C)c1S(=O)(=O)NC(=O)c1cc2c(F)cc(N3CCC3)cc2o1 [Example 86, 6-(Azetidin-1-yl)-4-fluoro-N-{2-methyl-6-[(propan-2-yl)oxy]benzene-1-sulfonyl}-1-benzofuran-2-carboxamide] | 54.8 | 3.33e-07
4 | CN(C)c1ccccc1S(=O)(=O)NC(=O)c1cc2c(F)cc(N3CCC3)cc2o1 [Example 11, 6-(Azetidin-1-yl)-N-[2-(dimethylamino)benzene-1-sulfonyl]-4-fluoro-1-benzofuran-2-carboxamide] | 75.2 | 1.45e-07
5 | CCOc1ccccc1S(=O)(=O)NC(=O)c1cc2c(F)cc(N3CC[C@@H]3C(N)=O)cc2o1 (racemic) [Example 169, 1-{2-[(2-Ethoxybenzene-1-sulfonyl)carbamoyl]-4-fluoro-1-benzofuran-6-yl}azetidine-2-carboxamide (rac)] | 4070 | > 2e-05
6 | Cc1ccc(S(=O)(=O)NC(=O)c2cc3c(F)cc(N4CCC4)cc3o2)c2ccccc12 [Example 87, 6-(azetidin-1-yl)-4-fluoro-N-(4-methylnaphthalene-1-sulfonyl)-1-benzofuran-2-carboxamide] | 64.5 | 1.2e-06
7 | CC(Oc1ccccc1S(=O)(=O)NC(=O)c1cc2c(F)cc(N3CCC3)cc2o1)C(F)(F)F (racemic) [Example 13, 6-(Azetidin-1-yl)-4-fluoro-N-(2-{[-1,1,1-trifluoropropan-2-yl]oxy}benzene-1-sulfonyl)-1-benzofuran-2-carboxamide (rac)] | 18.9 | 1.66e-07
8 | Cc1ccc(C(C)C)cc1S(=O)(=O)NC(=O)c1cc2c(F)cc(N3CCC3)cc2o1 [Example 32, 6-(Azetidin-1-yl)-4-fluoro-N-[2-methyl-5-(propan-2-yl)benzene-1-sulfonyl]-1-benzofuran-2-carboxamide] | 34.2 | 5.11e-07
9 | O=C(NS(=O)(=O)c1cccc2c1S(=O)(=O)CCC2)c1cc2c(F)cc(N3CCC3)cc2o1 [Example 141, 6-(Azetidin-1-yl)-N-(1,1-dioxo-1,2,3,4-tetrahydro-1-benzothiopyran-8-sulfonyl)-4-fluoro-1-benzofuran-2-carboxamide] | 139 | 5.12e-07
10 | CC(=O)Nc1ccc(S(=O)(=O)NC(=O)c2cc3c(F)cc(N4CCC4)cc3o2)c2ccccc12 [Example 185, N-(4-Aacetamidonaphthalene-1-sulfonyl)-6-(azetidin-1-yl)-4-fluoro-1-benzofuran-2-carboxamide] | 195 | 9.61e-06
11 | O=C(NS(=O)(=O)c1cccc2c1OCCC2)c1cc2c(F)cc(N3CCC3)cc2o1 [Example 12, 6-(Azetidin-1-yl)-N-(3,4-dihydro-2H-1-benzopyran-8-sulfonyl)-4-fluoro-1-benzofuran-2-carboxamide] | 42.7 | 1.63e-07
12 | CCOc1cccc(S(=O)(=O)NC(=O)c2cc3c(F)cc(N4CCC4)cc3o2)c1 [Example 75, 6-(Azetidin-1-yl)-N-(3-ethoxybenzene-1-sulfonyl)-4-fluoro-1-benzofuran-2-carboxamide] | 337 | 2.76e-06
13 | O=C(NS(=O)(=O)c1cc(Br)ccc1OC(F)(F)F)c1cc2c(F)cc(N3CCC3)cc2o1 [Example 82, 6-(Azetidin-1-yl)-N-[5-bromo-2-(trifluoromethoxy)benzene-1-sulfonyl]-4-fluoro-1-benzofuran-2-carboxamide] | 19.3 | 3.66e-07
14 | COCc1cccc(S(=O)(=O)NC(=O)c2cc3c(F)cc(N4CCC4)cc3o2)c1 [Example 48, 6-(Azetidin-1-yl)-4-fluoro-N-[3-(methoxymethyl)benzene-1-sulfonyl]-1-benzofuran-2-carboxamide] | 281 | 1.29e-06
15 | O=C(NS(=O)(=O)c1c[nH]c2ccccc12)c1cc2c(F)cc(N3CCC3)cc2o1 [Example 176, 6-(Azetidin-1-yl)-4-fluoro-N-(1H-indole-3-sulfonyl)-1-benzofuran-2-carboxamide] | 26.8 | 1.88e-07
16 | O=C(NS(=O)(=O)c1cccc2c1NCCC2)c1cc2c(F)cc(N3CC(F)C3)cc2o1 [Example 110, 4-Fluoro-6-(3-fluoroazetidin-1-yl)-N-(1,2,3,4-tetrahydroquinoline-8-sulfonyl)-1-benzofuran-2-carboxamide] | 208 | 5.47e-07
17 | CC(O)c1ccc(Cl)c(S(=O)(=O)NC(=O)c2cc3c(F)cc(N4CCC4)cc3o2)c1 (racemic) [Example 100, 6-(Azetidin-1-yl)-N-[2-chloro-5-(1-hydroxyethyl)benzene-1-sulfonyl]-4-fluoro-1-benzofuran-2-carboxamide (rac)] | 139 | 1.29e-06
18 | O=C(NS(=O)(=O)c1cccc2c1OC(F)(F)C(F)(F)O2)c1cc2c(F)cc(N3CC(F)C3)cc2o1 [Example 159, 4-Fluoro-6-(3-fluoroazetidin-1-yl)-N-(2,2,3,3-tetrafluoro-2,3-dihydro-1,4-benzodioxine-5-sulfonyl)-1-benzofuran-2-carboxamide] | 34.3 | 7.45e-07
19 | COc1ccc2snnc2c1S(=O)(=O)NC(=O)c1cc2c(F)cc(N3CCC3)cc2o1 [Example 182, 6-(Azetidin-1-yl)-4-fluoro-N-(5-methoxy-1,2,3-benzothiadiazole-4-sulfonyl)-1-benzofuran-2-carboxamide] | 55.1 | 8.48e-07
20 | Cc1cncc2cccc(S(=O)(=O)NC(=O)c3cc4c(F)cc(N5CCC5)cc4o3)c12 [Example 193, 6-(Azetidin-1-yl)-4-fluoro-N-(4-methylisoquinoline-5-sulfonyl)-1-benzofuran-2-carboxamide] | 4820 | > 2e-05
21 | O=C(NS(=O)(=O)c1cc(CO)ccc1OC(F)(F)F)c1cc2c(F)cc(N3CCC3)cc2o1 [Example 63, 6-(Azetidin-1-yl)-4-fluoro-N-[5-(hydroxymethyl)-2-(trifluoromethoxy)benzene-1-sulfonyl]-1-benzofuran-2-carboxamide] | 131 | 6.48e-06
22 | CC(C)Nc1ccc(Cl)cc1S(=O)(=O)NC(=O)c1cc2c(F)cc(N3CCC3)cc2o1 [Example 49, 6-(Azetidin-1-yl)-N-{5-chloro-2-[(propan-2-yl)amino]benzene-1-sulfonyl}-4-fluoro-1-benzofuran-2-carboxamide] | 67.3 | 1.41e-06
23 | O=C(NS(=O)(=O)c1cnc2c(Cl)cc(Cl)cn12)c1cc2c(F)cc(N3CCC3)cc2o1 [Example 168, 6-(Azetidin-1-yl)-N-(6,8-dichloroimidazo[1,2-a]pyridine-3-sulfonyl)-4-fluoro-1-benzofuran-2-carboxamide] | 671 | > 2e-05
24 | O=C(NS(=O)(=O)c1ccccc1S(=O)(=O)c1ccccc1)c1cc2c(F)cc(N3CCC3)cc2o1 [Example 45, 6-(Azetidin-1-yl)-N-[2-(benzenesulfonyl)benzene-1-sulfonyl]-4-fluoro-1-benzofuran-2-carboxamide] | 111 | 1.1e-06
25 | Cc1cc(C(C)(C)C)cc(S(=O)(=O)NC(=O)c2cc3c(F)cc(N4CCC4)cc3o2)c1C [Example 189, 6-(Azetidin-1-yl)-N-(5-tert-butyl-2,3-dimethylbenzene-1-sulfonyl)-4-fluoro-1-benzofuran-2-carboxamide] | 8.59 | 1.3e-07
26 | COc1cccc2c(S(=O)(=O)NC(=O)c3cc4c(F)cc(N5CCC5)cc4o3)cccc12 [Example 65, 6-(Azetidin-1-yl)-4-fluoro-N-(5-methoxynaphthalene-1-sulfonyl)-1-benzofuran-2-carboxamide] | 57.1 | 8.32e-06
27 | O=C(NS(=O)(=O)c1csc2ccccc12)c1cc2c(F)cc(N3CCC3)cc2o1 [Example 178, 6-(Azetidin-1-yl)-N-(1-benzothiophene-3-sulfonyl)-4-fluoro-1-benzofuran-2-carboxamide] | 35.3 | 3.16e-07
28 | Cc1ccc(S(=O)(=O)NC(=O)c2cc3c(F)cc(N4CCC4)cc3o2)c(OC(F)F)c1 [Example 35, 6-(Azetidin-1-yl)-N-[2-(difluoromethoxy)-4-methylbenzene-1-sulfonyl]-4-fluoro-1-benzofuran-2-carboxamide] | 42.1 | 6.09e-07
